Data on four compounds can be found in US7361633B2, “Screening method and anti-tumor drug candidate obtained therefrom” (Ardana Bioscience Limited, priority 2002, dated 2008).

The test system of one assay is JEG-3 cells. The experiment in a line: Annexin V-FITC staining of extracellular phosphatidylserine (apoptosis) in JEG-3 cells. The format is cell-based, human. Conditions: for extracellular annexin-V-reactive phosphatidylserine: 100 nM. As to the method:
All twelve panels depict either phase contrast (1, 4, 7, 10), confocal laser microscope (2, 5, 8, 11) or phase contrast/confocal merged images (3, 6, 9, 12). Panels 1 to 3 depict untreated control JEG-3 cells for cells in panels 4 to 6 which have been treated with GnRH I (100 nM) for 24 h. All cells have been exposed while live to an annexin V recombinant protein conjugated to the FITC fluorophore. The annexin V will bind specifically only to phosphatidlyserine (PS) lipids usually only expressed on the intracellular side of the plasma membrane lipid bilayer. An early sign of apoptosis is the translocation of these PS lipids from the intracellular side of the membrane to the outer aspect of the bilayer. […] Panels 10 to 12 depict cells exposed to GnRH I for 48 h while panels 7 to 9 serve as unstimulated contemporaneous controls. […] The cellular levels of caspase 3 and procaspase 3 were assessed by specific immunoblotting of JEG-3 or BPH-1 whole cell (w-c) lysates from cells stimulated continuously with GnRH I for the times depicted.
A similar experimental approach was employed for the transfer of this study to BPH-1 cells, however as the MAPK under study in these cells was p38α much lower dose of SB203580 (1 μM) could be employed as the compound has a much greater inhibitory potency against p38 compared to JNK.
Thus we have shown that upon continuous GnRH ligand stimulation of either JEG-3 or BPH-1 there is a retardation of cell growth, however we were interested as to whether there was any genuine induction of cellular apoptosis recently reported to occur in several tumour cell lines (Soon et al (2002) J. Clin. Endocrinol. Metab. 87, 4580-4586). […] Initially we measured the effects of GnRH stimulation upon the ultrastructural integrity of the cells plasma membrane. A well documented early event in apoptosis is a reversal in the polarity of many plasma membrane molecules such as phosphatidylserine (PS). At an early stage of cellular apoptosis there is a significant translocation of PS from the inner to the outer envelope of the plasma membrane. […]

Another assay has as its system BPH-1 cells. As to the kind of experiment: Annexin V-FITC staining of extracellular phosphatidylserine (apoptosis) in BPH-1 cells. Conditions: 48 h. In kind it is cell-based, human. As to the method: All twelve panels depict either phase contrast (1, 4, 7, 10), confocal laser microscope (2, 5, 8, 11) or phase contrast/confocal merged images (3, 6, 9, 12). Panels 1 to 3 depict untreated control JEG-3 cells for cells in panels 4 to 6 which have been treated with GnRH I (100 nM) for 24 h. All cells have been exposed while live to an annexin V recombinant protein conjugated to the FITC fluorophore. The annexin V will bind specifically only to phosphatidlyserine (PS) lipids usually only expressed on the intracellular side of the plasma membrane lipid bilayer. An early sign of apoptosis is the translocation of these PS lipids from the intracellular side of the membrane to the outer aspect of the bilayer. […] The cellular levels of caspase 3 and procaspase 3 were assessed by specific immunoblotting of JEG-3 or BPH-1 whole cell (w-c) lysates from cells stimulated continuously with GnRH I for the times depicted. […]
(§1) Thus we have shown that upon continuous GnRH ligand stimulation of either JEG-3 or BPH-1 there is a retardation of cell growth, however we were interested as to whether there was any genuine induction of cellular apoptosis recently reported to occur in several tumour cell lines (Soon et al (2002) J. Clin. Endocrinol. Metab. 87, 4580-4586). […] Initially we measured the effects of GnRH stimulation upon the ultrastructural integrity of the cells plasma membrane. […]

In assay [1] the test system is Gαi-type G protein. The experiment in a line: Inhibition of forskolin-stimulated cAMP accumulation in BPH-1 cells. In kind it is cell-based, human. The note with it: for FSK-stimulated intracellular cAMP accumulation after ligand pre-exposure: 100 nM, pre-exposure 10, 30, 60 minutes; for effect of PTX on ligand-mediated inhibition of FSK-stimulated cAMP accumulation: 60 minute pre-exposure, PTX 200 ng/ml 16 h. The source says:
(§2) In both BPH-1 and JEG-3 cells GnRH and Ant 135-25 can antagonize forskolin (FSK) stimulated intracellular cAMP accumulation. Panels a and b respectively depict the effects of FSK, GnRH I and Ant 135-25 upon intracellular levels of cAMP in BPH-1 and JEG-3 cells measured using a calorimetric Biomol cAMP assay kit. […] Each histogram in panels a to d depicts the mean±s.e. mean of three to four experimental replicates of the cAMP accumulation assay.
(§3) Thus we noted that when cyclic adenosine monophosphate levels (cAMP) were measured using a commercially available […] assay system (Biomol) the ability of forskolin (1 μM in JEG-3 and 3 μM in BPH-1, sufficient to give a 50% Rmax response in each case) was blunted with extended cellular pre-treatment times (10 to 60 minutes) with either 100 nM GnRH I or Ant 135-25 (FIG. 9, panel a-BPH, panel b-JEG). […] Therefore it appears that both ligands can efficiently activate the adenylate cyclase inhibitory activity of Gαi in both cell models tested.
(Cyclic AMP is a second messenger, typically raised through Gs and lowered through Gi signalling.)

The subject of assay [2] is Gαi-type G protein. The experiment in a line: Inhibition of forskolin-stimulated cAMP accumulation in JEG-3 cells. The note with it: for FSK-stimulated intracellular cAMP accumulation after ligand pre-exposure: 100 nM, pre-exposure 10, 30, 60 minutes; for effect of PTX on ligand-mediated inhibition of FSK-stimulated cAMP accumulation: 60 minute pre-exposure, PTX 200 ng/ml 16 h. The format is cell-based, human.
Source text: as §2, §3

A further assay deals with Type I GnRHR. As to the kind of experiment: Binding affinity for Type I GnRHR (data not shown).
A further assay has as its target T1, Type II GnRHR (Callithrix jacchus, UniProt Q95MG6).
T1 sequence (Q95MG6 1-380): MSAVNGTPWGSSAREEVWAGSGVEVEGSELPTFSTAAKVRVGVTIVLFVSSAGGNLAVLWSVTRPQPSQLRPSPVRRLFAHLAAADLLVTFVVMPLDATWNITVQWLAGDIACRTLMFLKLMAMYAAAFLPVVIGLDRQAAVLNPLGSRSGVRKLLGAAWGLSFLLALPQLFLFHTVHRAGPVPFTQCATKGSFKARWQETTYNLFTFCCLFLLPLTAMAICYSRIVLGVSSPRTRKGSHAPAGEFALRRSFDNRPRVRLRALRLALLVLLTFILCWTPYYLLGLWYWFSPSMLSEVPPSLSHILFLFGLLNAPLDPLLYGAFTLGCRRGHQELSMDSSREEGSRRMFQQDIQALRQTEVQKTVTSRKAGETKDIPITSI
The experiment in a line: Binding affinity for Type II GnRHR (data not shown).

Assay [3] relates to Type II GnRHRs cloned from several species. The note with it: Ott et al (2002); cited from earlier work.
Assay [4] relates to caspase 3 and procaspase 3. As to the kind of experiment: Caspase 3 / procaspase 3 immunoblot of JEG-3 whole cell lysates. In kind it is cell-based, human. The note with it: JEG-3 cells, 100 nM continuously, time course. Here is the method: (§4) All twelve panels depict either phase contrast (1, 4, 7, 10), confocal laser microscope (2, 5, 8, 11) or phase contrast/confocal merged images (3, 6, 9, 12). Panels 1 to 3 depict untreated control JEG-3 cells for cells in panels 4 to 6 which have been treated with GnRH I (100 nM) for 24 h. All cells have been exposed while live to an annexin V recombinant protein conjugated to the FITC fluorophore. The annexin V will bind specifically only to phosphatidlyserine (PS) lipids usually only expressed on the intracellular side of the plasma membrane lipid bilayer. An early sign of apoptosis is the translocation of these PS lipids from the intracellular side of the membrane to the outer aspect of the bilayer. […] The cellular levels of caspase 3 and procaspase 3 were assessed by specific immunoblotting of JEG-3 or BPH-1 whole cell (w-c) lysates from cells stimulated continuously with GnRH I for the times depicted.
as §1
(In general: Immunoblotting shows a protein as a band on a membrane.)

The test system of assay [5] is caspase 3 and procaspase 3. As to the kind of experiment: Caspase 3 / procaspase 3 immunoblot of BPH-1 whole cell lysates. Conditions: BPH-1 cells, continuous stimulation, time course. In kind it is cell-based, human. As to the method:
as §4, §1

“Also recorded” adds a separate entry of the source.

Take `C[S+]([O-])c1ccc(-c2nc(-c3ccncc3)c(-c3ccc(F)cc3)[nH]2)cc1` (stereo not shown) [SB203580]: the “effect on GnRH I-induced annexin V-FITC staining (pro-apoptotic state)” value was “significant reduction in extent of cells entering a pro-apoptotic state; also recorded: significant reduction in the degree of annexin-V-FITC staining” in the assay with JEG-3 cells (20 μM SB203580 with 100 nM GnRH I, 48 h) and “prevented GnRH from inducing a pro-apoptotic state in the BPH-1 cells; also recorded: almost completely abrogated” in the assay on BPH-1 cells (1 μM SB203580 with GnRH I).
As to “Ac-D-Nal(2)-D-4-ClPhe-D-Pal-Ser-1-MePal-D-IsopropylLys-Leu-IsopropylLys-Pro-D-AlaNH2 [Ant 135-25]”, in the assay on Gαi-type G protein [1], the “FSK-stimulated intracellular cAMP accumulation after ligand pre-exposure” value was “significantly reduced; also recorded: blunted” and the “effect of PTX on ligand-mediated inhibition of FSK-stimulated cAMP accumulation” value is reported as “can be specifically inhibited with a 16 h pre-incubation of the cells with 200 ng/ml of PTX; also recorded: attenuated by a 16 h pre-treatment with 200 ng/ml PTX”. In addition, in the assay on Gαi-type G protein [2], the “FSK-stimulated intracellular cAMP accumulation after ligand pre-exposure” value was “significantly reduced; also recorded: blunted” and the “effect of PTX on ligand-mediated inhibition of FSK-stimulated cAMP accumulation” value was “can be specifically inhibited with a 16 h pre-incubation of the cells with 200 ng/ml of PTX; also recorded: attenuated by a 16 h pre-treatment with 200 ng/ml PTX”. Besides, the “binding affinity for Type I GnRHR” value in the assay on Type I GnRHR is “high binding affinity”. Moreover, at Type II GnRHR, the “binding affinity for Type II GnRHR” value was “high binding affinity”.
With “Ac-D-Nal(2)-D-4-ClPhe-D-Pal-Ser-Ile-D-IsopropylLys-Leu-IsopropylLys-Pro-D -AlaNH2 [Ant 135-18]”, in [3], the “partial agonistic activity upon Type II GnRHRs cloned from several species” value is reported as “high degree of partial agonistic activity”.
For the compound “GnRH I: Gonadotropin-Releasing Hormone, a decapeptide; the original form of GnRH, re-named GnRH I”, the “extracellular annexin-V-reactive phosphatidylserine” value in the assay with JEG-3 cells (24 h) is recorded as “no significant expression of annexin-V-reactive PS on the extracellular surface of the plasma membrane”; in the assay with JEG-3 cells (48 h), “significant expression of extracellular annexin-V-reactive PS; also recorded: cells begin to become anti-annexin V-FITC immunoreactive; also recorded: considerable amount of external membrane annexin-V-reactive PS”; in the assay on BPH-1 cells it was “Identical results; also recorded: significant induction of annexin-V-FITC reactivity on the outer plasma membrane envelope”. The “FSK-stimulated intracellular cAMP accumulation after ligand pre-exposure” value in the assay with Gαi-type G protein [1] and in the assay on Gαi-type G protein [2] was “significantly reduced; also recorded: blunted” throughout. Also, the “effect of PTX on ligand-mediated inhibition of FSK-stimulated cAMP accumulation” value with Gαi-type G protein [1] and in the assay with Gαi-type G protein [2] was “can be specifically inhibited with a 16 h pre-incubation of the cells with 200 ng/ml of PTX; also recorded: attenuated by a 16 h pre-treatment with 200 ng/ml PTX” throughout. For the same compound, the “cellular level of cleaved (active) caspase-3” value in [4] is “enhanced expression of the pro-apoptotic proteases cleaved-caspase 3 and procaspase 3; also recorded: only significantly evident between 48-72 h”. In assay [4], the “cellular level of pro-caspase 3” value is “enhanced expression of the pro-apoptotic proteases cleaved-caspase 3 and procaspase 3; also recorded: significant elevation in the cellular levels of pro-caspase 3 evident from 24-48 h”. The “cellular levels of pro-caspase 3 and cleaved caspase-3” value in assay [5] was “enhanced expression of the pro-apoptotic proteases cleaved-caspase 3 and procaspase 3; also recorded: more rapid onset on the generation of cleaved caspase-3”.
